We go through 8 molecules from PubChem BioAssay AID180 (DTP/NCI, 2004).

SMILES strings stand for the structures. Where “and” joins values, the source holds several entries; their conditions need not be identical. Equal values may be shown once.

The subject of the test is BDF1 mice, Adenocarcinoma 755 s.c., tumor weight T/C. In words: NCI In Vivo Anticancer Drug Screen. Data for tumor model Adenocarcinoma 755 (subcutaneous) in B6D2F1 (BDF1) mice. To be noted: endpoint: mean tumor weight, higher = larger tumour. An outline of the steps:
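Readout: T/C, i.e. treated-group measurement over vehicle-control measurement. Endpoint is survival or tumor size in tumor-bearing mice given compound.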

[1] abbreviates: dose: 8.0 mg/kg/injection, schedule: Q01DX011 (ip), vehicle: carboxymethylcellulose (CMC).
Where [2] appears, read: dose: 31.0 mg/kg/injection, schedule: Q01DX011 (ip), vehicle: carboxymethylcellulose (CMC).
[3] abbreviates: dose: 62.0 mg/kg/injection, schedule: Q01DX011 (ip), vehicle: carboxymethylcellulose (CMC).

Take `C=CC(CN1CC1)OC(C)=O` (stereo not given): the T/C is, setting by setting: (dose: 0.25 mg/kg/injection, schedule: Q01DX011 (sc), vehicle: saline) 97 % of control; (dose: 0.5 mg/kg/injection, schedule: Q01DX010 (oral), vehicle: saline) 28 % of control; (dose: 0.5 mg/kg/injection, schedule: Q01DX011 (ip), vehicle: methylcellulose (MC)) 62 % of control; (dose: 0.5 mg/kg/injection, schedule: Q01DX011 (sc), vehicle: saline) 94 % of control; (dose: 1.0 mg/kg/injection, schedule: Q01DX006 (iv), vehicle: saline) 63 % of control; (dose: 1.0 mg/kg/injection, schedule: Q01DX010 (oral), vehicle: saline) 21 % of control. Moreover, the T/C was 49 % of control (dose: 1.0 mg/kg/injection, schedule: Q01DX011 (ip), vehicle: methylcellulose (MC)); 83 % of control (dose: 1.0 mg/kg/injection, schedule: Q01DX011 (sc), vehicle: saline); 93 % of control (dose: 1.0 mg/kg/injection, schedule: Q02DX004 (im), vehicle: saline); 202 % of control (dose: 1.24 mg/kg/injection, schedule: Q01DX011 (ip), vehicle: carboxymethylcellulose (CMC)); 36 % of control (dose: 1.6 mg/kg/injection, schedule: Q01DX011 (ip), vehicle: carboxymethylcellulose (CMC)); 81 % of control (dose: 1.69 mg/kg/injection, schedule: Q01DX011 (ip), vehicle: carboxymethylcellulose (CMC)). Moreover, the T/C (dose: 1.81 mg/kg/injection, schedule: Q01DX011 (ip), vehicle: carboxymethylcellulose (CMC)) is 76 % of control; the T/C (dose: 2.0 mg/kg/injection, schedule: Q01DX006 (iv), vehicle: saline) was 66 % of control; the T/C (dose: 2.0 mg/kg/injection, schedule: Q01DX010 (oral), vehicle: saline) is 9 % of control; the T/C (dose: 2.0 mg/kg/injection, schedule: Q01DX011 (sc), vehicle: saline) is 47 % of control; the T/C (dose: 2.0 mg/kg/injection, schedule: Q02DX004 (im), vehicle: saline) was 68 % of control; the T/C (dose: 2.48 mg/kg/injection, schedule: Q01DX011 (ip), vehicle: carboxymethylcellulose (CMC)) was 79 % of control. Further, the T/C by setting is: (dose: 2.7 mg/kg/injection, schedule: Q01DX011 (ip), vehicle: carboxymethylcellulose (CMC)) 33 % of control; (dose: 3.2 mg/kg/injection, schedule: Q01DX011 (ip), vehicle: carboxymethylcellulose (CMC)) 77 % of control; (dose: 3.25 mg/kg/injection, schedule: Q01DX011 (oral), vehicle: saline) 50 % of control; (dose: 3.63 mg/kg/injection, schedule: Q01DX011 (ip), vehicle: carboxymethylcellulose (CMC)) 51 % of control; (dose: 3.96 mg/kg/injection, schedule: Q01DX011 (ip), vehicle: carboxymethylcellulose (CMC)) 29 % of control and 45 % of control; (dose: 4.0 mg/kg/injection, schedule: Q01DX006 (iv), vehicle: saline) 38 % of control. Moreover, the T/C is, setting by setting: (dose: 4.0 mg/kg/injection, schedule: Q01DX010 (oral), vehicle: saline) 7 % of control; (dose: 4.0 mg/kg/injection, schedule: Q01DX011 (sc), vehicle: saline) 19 % of control and 40 % of control; (dose: 4.0 mg/kg/injection, schedule: Q02DX004 (im), vehicle: saline) 57 % of control; (dose: 6.0 mg/kg/injection, schedule: Q01DX011 (ip), vehicle: carboxymethylcellulose (CMC)) 26 % of control; (dose: 6.4 mg/kg/injection, schedule: Q01DX011 (ip), vehicle: carboxymethylcellulose (CMC)) 26 % of control; (dose: 6.6 mg/kg/injection, schedule: Q01DX011 (ip), vehicle: carboxymethylcellulose (CMC)) 7 % of control and 19 % of control. The T/C was 21 % of control (dose: 6.75 mg/kg/injection, schedule: Q01DX011 (ip), vehicle: carboxymethylcellulose (CMC)); 10 % of control (dose: 7.25 mg/kg/injection, schedule: Q01DX011 (ip), vehicle: carboxymethylcellulose (CMC)); 2 % of control and 8 % of control (dose: 7.5 mg/kg/injection, schedule: Q01DX011 (ip), vehicle: saline); 19 % of control (dose: 7.5 mg/kg/injection, schedule: Q01DX011 (oral), vehicle: saline); 16 % of control (dose: 8.0 mg/kg/injection, schedule: Q01DX006 (iv), vehicle: saline); 14 % of control under setting [1]. Also, the T/C (dose: 8.0 mg/kg/injection, schedule: Q01DX011 (sc), vehicle: saline) was 9 % of control; the T/C (dose: 8.0 mg/kg/injection, schedule: Q02DX004 (im), vehicle: saline) is 27 % of control; the T/C (dose: 9.9 mg/kg/injection, schedule: Q01DX011 (ip), vehicle: carboxymethylcellulose (CMC)) is 8 % of control and 11 % of control; the T/C (dose: 12.0 mg/kg/injection, schedule: Q01DX011 (ip), vehicle: carboxymethylcellulose (CMC)) was 3 % of control; the T/C (dose: 15.0 mg/kg/injection, schedule: Q01DX011 (ip), vehicle: saline) is 1 % of control; the T/C (dose: 62.5 micrograms/kg/injection, schedule: Q01DX011 (oral), vehicle: saline) is 51 % of control. In addition, the T/C (dose: 125.0 micrograms/kg/injection, schedule: Q01DX011 (oral), vehicle: saline) was 37 % of control; the T/C (dose: 250.0 micrograms/kg/injection, schedule: Q01DX011 (oral), vehicle: saline) is 72 % of control; the T/C (dose: 500.0 micrograms/kg/injection, schedule: Q01DX011 (oral), vehicle: saline) is 86 % of control.

On to `CCCCCCCCCCCCCCCC[n+]1ccccc1`, for which the T/C (dose: 0.12 mg/kg/injection, schedule: Q01DX011 (ip), vehicle: water) was 89 % of control; the T/C (dose: 0.25 mg/kg/injection, schedule: Q01DX011 (ip), vehicle: water) was 79 % of control; the T/C (dose: 0.5 mg/kg/injection, schedule: Q01DX011 (ip), vehicle: water) was 89 % of control.

Take `C[C@H]1C[C@H]2[C@@H]3CC[C@](O)(C(=O)CO)[C@@]3(C)C[C@H](O)[C@]2(F)[C@@]2(C)C=CC(=O)C=C12`: the T/C (dose: 7.0 mg/kg/injection, schedule: Q01DX011 (sc), vehicle: steriod suspending solution) was 39 % of control and 49 % of control; the T/C (dose: 30.0 mg/kg/injection, schedule: Q01DX011 (sc), vehicle: steriod suspending solution) was 7 % of control and 16 % of control.

With `CN(C)N=Nc1ccc(CCCC(=O)NN)cc1`, the T/C was 60 % of control under setting [2] and 10 % of control under setting [3].

As to `CCOC(=O)c1ccc(N=NN(C)C)cc1`, the T/C is, setting by setting: under setting [1], 92 % of control; (dose: 16.0 mg/kg/injection, schedule: Q01DX011 (ip), vehicle: carboxymethylcellulose (CMC)) 94 % of control; under setting [2], 113 % of control; under setting [3], 95 % of control.

In the case of `CSc1nc(N)nc2c1ncn2C1OC(CO)C(O)C1O` (stereo not given), the T/C is 82 % of control (dose: 8.2 mg/kg/injection, schedule: Q01DX011 (ip), vehicle: carboxymethylcellulose (CMC)); 53 % of control (dose: 16.5 mg/kg/injection, schedule: Q01DX011 (ip), vehicle: carboxymethylcellulose (CMC)); 20 % of control (dose: 33.0 mg/kg/injection, schedule: Q01DX011 (ip), vehicle: carboxymethylcellulose (CMC)); 9 % of control (dose: 66.0 mg/kg/injection, schedule: Q01DX011 (ip), vehicle: carboxymethylcellulose (CMC)); 9 % of control (dose: 66.25 mg/kg/injection, schedule: Q01DX011 (ip), vehicle: methylcellulose (MC)); 4 % of control (dose: 112.5 mg/kg/injection, schedule: Q01DX011 (ip), vehicle: methylcellulose (MC)).

Take `C[C@]12C=CC(=O)C=C1CC[C@@H]1[C@@H]2CC[C@]2(C)OC(=O)CC[C@@H]12`: the T/C reads like this: (dose: 125.0 mg/kg/injection, schedule: Q01DX011 (sc), vehicle: steriod suspending solution) 80 % of control; (dose: 250.0 mg/kg/injection, schedule: Q01DX011 (sc), vehicle: steriod suspending solution) 77 % of control; (dose: 500.0 mg/kg/injection, schedule: Q01DX011 (sc), vehicle: steriod suspending solution) 109 % of control; (dose: 1000.0 mg/kg/injection, schedule: Q01DX011 (sc), vehicle: steriod suspending solution) 75 % of control.

With `Nc1ncnc2c1ncn2C1CCCCC1`, the T/C (dose: 34.0 mg/kg/injection, schedule: Q01DX011 (oral), vehicle: carboxymethylcellulose (CMC)) was 75 % of control; the T/C (dose: 68.0 mg/kg/injection, schedule: Q01DX011 (oral), vehicle: carboxymethylcellulose (CMC)) was 120 % of control; the T/C (dose: 136.0 mg/kg/injection, schedule: Q01DX011 (oral), vehicle: carboxymethylcellulose (CMC)) was 78 % of control; the T/C (dose: 272.0 mg/kg/injection, schedule: Q01DX011 (oral), vehicle: carboxymethylcellulose (CMC)) was 106 % of control.

Usually T/C stands for the ratio of treated to control.
